Laboratory results reported in paper PMC5560747, “Computational-experimental approach to drug-target interaction mapping: A case study on kinase inhibitors” (PLoS Computational Biology, 2017).

Key:
CSNK1D = tested on: CSNK1D; design: method as in Gao et al. [42]; settings: ref Gao et al. [42], cited from earlier work
PIM3 = tested on: PIM3; design: method as in Gao et al. [42]; settings: ref Gao et al. [42], cited from earlier work
TSSK2 = tested on: TSSK2; design: method as in Gao et al. [42]; settings: ref Gao et al. [42], cited from earlier work
TRKA = TRKA (Homo sapiens, UniProt P04629); design: method as in Gao et al. [42]; settings: ref Gao et al. [42], cited from earlier work
Chain of TRKA (P04629 33-796): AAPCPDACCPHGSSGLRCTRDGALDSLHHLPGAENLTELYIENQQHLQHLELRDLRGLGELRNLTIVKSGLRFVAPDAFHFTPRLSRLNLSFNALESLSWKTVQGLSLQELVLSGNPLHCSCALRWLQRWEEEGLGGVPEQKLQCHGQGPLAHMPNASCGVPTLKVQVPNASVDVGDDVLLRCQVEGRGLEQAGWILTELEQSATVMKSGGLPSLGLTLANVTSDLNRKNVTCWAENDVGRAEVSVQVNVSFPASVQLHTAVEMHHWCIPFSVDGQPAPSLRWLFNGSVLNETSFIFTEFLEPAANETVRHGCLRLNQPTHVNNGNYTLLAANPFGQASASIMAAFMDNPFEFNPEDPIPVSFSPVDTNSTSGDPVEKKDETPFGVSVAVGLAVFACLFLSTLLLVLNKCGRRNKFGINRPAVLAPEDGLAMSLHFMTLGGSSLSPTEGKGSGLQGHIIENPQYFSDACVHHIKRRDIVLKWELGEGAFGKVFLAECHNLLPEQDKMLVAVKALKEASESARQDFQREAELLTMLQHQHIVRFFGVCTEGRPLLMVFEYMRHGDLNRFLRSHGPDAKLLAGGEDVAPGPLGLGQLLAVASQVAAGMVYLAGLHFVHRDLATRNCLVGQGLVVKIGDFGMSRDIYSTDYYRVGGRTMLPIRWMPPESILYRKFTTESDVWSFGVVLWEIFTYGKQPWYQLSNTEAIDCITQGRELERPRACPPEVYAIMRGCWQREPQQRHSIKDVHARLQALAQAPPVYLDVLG

SGK1 = tested on: SGK1; design: method as in Gao et al. [42]; settings: ref Gao et al. [42], cited from earlier work
AKT1 = tested on: AKT1; design: method as in Gao et al. [42]; settings: ref Gao et al. [42], cited from earlier work
PIM2 = tested on: PIM2; design: method as in Gao et al. [42]; settings: ref Gao et al. [42], cited from earlier work
MKNK2 (MNK2) = tested on: MKNK2 (MNK2); design: method as in Gao et al. [42]; settings: ref Gao et al. [42], cited from earlier work
FLT4 = FLT4 (Homo sapiens, UniProt P35916); design: method as in Gao et al. [42]; settings: ref Gao et al. [42], cited from earlier work
Chain of FLT4 (P35916 25-1363): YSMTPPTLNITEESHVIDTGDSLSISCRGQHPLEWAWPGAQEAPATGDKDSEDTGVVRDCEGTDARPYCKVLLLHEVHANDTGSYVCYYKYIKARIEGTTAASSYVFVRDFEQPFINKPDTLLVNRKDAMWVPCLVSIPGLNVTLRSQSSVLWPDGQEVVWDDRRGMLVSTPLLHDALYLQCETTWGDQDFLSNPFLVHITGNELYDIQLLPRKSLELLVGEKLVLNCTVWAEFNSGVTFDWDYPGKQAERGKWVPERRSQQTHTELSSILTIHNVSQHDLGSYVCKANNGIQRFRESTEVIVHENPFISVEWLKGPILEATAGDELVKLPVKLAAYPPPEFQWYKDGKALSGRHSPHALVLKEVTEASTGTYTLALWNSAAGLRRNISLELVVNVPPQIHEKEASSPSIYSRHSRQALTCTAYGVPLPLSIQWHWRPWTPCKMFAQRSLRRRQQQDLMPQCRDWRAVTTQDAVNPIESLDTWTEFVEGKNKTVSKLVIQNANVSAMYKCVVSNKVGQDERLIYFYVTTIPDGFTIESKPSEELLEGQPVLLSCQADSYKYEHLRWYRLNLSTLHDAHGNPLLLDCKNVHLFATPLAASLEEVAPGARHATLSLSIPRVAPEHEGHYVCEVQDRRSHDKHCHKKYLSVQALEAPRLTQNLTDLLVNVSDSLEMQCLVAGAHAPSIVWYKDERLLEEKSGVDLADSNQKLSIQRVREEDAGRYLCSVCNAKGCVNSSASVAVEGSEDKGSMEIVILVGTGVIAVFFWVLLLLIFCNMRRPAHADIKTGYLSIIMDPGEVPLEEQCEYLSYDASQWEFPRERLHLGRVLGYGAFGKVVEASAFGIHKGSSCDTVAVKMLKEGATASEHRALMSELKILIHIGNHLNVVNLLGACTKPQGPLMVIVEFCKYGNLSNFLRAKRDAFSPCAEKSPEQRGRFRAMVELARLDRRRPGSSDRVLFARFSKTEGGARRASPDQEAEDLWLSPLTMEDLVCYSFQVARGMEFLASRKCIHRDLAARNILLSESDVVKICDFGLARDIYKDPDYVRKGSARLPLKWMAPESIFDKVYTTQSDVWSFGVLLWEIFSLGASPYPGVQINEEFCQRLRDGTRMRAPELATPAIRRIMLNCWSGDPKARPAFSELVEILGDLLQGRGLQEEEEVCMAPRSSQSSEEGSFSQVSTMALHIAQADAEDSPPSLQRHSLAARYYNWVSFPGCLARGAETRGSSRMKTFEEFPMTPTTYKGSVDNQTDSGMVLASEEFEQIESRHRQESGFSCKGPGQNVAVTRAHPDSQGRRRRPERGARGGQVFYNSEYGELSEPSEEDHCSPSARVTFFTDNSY

CDK5/p25 = tested on: CDK5/p25; design: method as in Gao et al. [42]; settings: ref Gao et al. [42], cited from earlier work
Aurora A = biological target: T1, Aurora A (Homo sapiens, UniProt O14965); test: ADP-Glo Kinase Assay, tivozanib off-target testing; assay type: biochemical; settings: read-out: Experimental validation pIC50 (converted)
T1 construct: purchased SignalChem A28-18G-10
T1 sequence (O14965 1-403): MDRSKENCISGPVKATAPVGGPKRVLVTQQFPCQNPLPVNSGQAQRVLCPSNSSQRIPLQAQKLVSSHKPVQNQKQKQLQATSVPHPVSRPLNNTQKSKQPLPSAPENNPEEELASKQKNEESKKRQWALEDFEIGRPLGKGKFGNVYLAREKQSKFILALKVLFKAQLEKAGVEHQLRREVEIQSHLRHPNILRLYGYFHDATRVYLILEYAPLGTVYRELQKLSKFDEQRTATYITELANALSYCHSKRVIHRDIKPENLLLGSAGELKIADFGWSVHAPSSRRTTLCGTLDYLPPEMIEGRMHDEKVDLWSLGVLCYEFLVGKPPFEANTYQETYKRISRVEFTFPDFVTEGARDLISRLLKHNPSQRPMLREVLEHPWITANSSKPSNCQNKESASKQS
Procedure: The kinase inhibitors were dissolved to 1X Kinase Buffer with 5% DMSO by transferring 200nL of the buffer using ECHO525 Liquid handler (Labcyte). […] The dissolved kinases and 2.5X kinase buffer controls were transferred at 400nL using ECHO525. […] The 2.5X ATP/substrate working stocks were transferred at 400nL using ECHO525.
For the ADP detection, 1 μl ADP-Glo reagent was dispensed (Thermo Scientific Multidrop Combi nL). […] Next, 2 μl kinase detection reagent was dispensed with Thermo Scientific Multidrop Combi nL.
Kinase assay, kinase dilution and substrate buffers were as indicated by the manufacturer (Promega). The assays were performed in the same way as with the kinases from the Kinase Selectivity Profiling System + ADP-Glo Assay kits (see previous section). All the assays were done in three individual experiments, each having three replicates.
IC50 values from all the experiments were obtained with GraphPad Prism 7 (GraphPad Software, Inc. California, USA) using inhibitor vs. response—variable slope (four parameters) analysis. […] X-axis scale was set to log10.

CAMK1 = tested on: CAMK1; design: method as in Gao et al. [42]; settings: ref Gao et al. [42], cited from earlier work
MINK1 = tested on: MINK1; design: method as in Gao et al. [42]; settings: ref Gao et al. [42], cited from earlier work
MAPK9 = tested on: MAPK9; design: method as in Gao et al. [42]; settings: ref Gao et al. [42], cited from earlier work
FRK = biological target: T2, FRK (Homo sapiens, UniProt P42685); design: method as in Gao et al. [42]; settings: ref Gao et al. [42], cited from earlier work
T2 construct: purchased SignalChem F14-11G-10
T2 sequence (P42685 whole entry): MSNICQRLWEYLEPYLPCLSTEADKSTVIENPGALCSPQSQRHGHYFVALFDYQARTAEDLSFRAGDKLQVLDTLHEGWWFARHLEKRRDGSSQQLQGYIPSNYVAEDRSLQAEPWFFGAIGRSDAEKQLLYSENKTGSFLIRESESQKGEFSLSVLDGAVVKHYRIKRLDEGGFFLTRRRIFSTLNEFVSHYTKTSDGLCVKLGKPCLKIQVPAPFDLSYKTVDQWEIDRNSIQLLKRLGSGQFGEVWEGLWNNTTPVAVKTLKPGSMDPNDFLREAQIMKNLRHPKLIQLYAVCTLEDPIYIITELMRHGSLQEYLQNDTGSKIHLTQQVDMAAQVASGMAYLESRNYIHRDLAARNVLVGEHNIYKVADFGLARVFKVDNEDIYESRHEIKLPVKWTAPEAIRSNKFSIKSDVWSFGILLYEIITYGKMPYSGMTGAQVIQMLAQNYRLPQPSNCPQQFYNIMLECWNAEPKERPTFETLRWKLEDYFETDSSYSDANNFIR

HIPK2 = tested on: HIPK2; design: method as in Gao et al. [42]; settings: ref Gao et al. [42], cited from earlier work

## COc1cc2nccc(Oc3ccc(NC(=O)Nc4cc(C)on4)c(Cl)c3)c2cc1OC [TIVOZANIB, Tivozanib]
CSNK1D; 1 µM
  Gao et al. % of activity remaining at 1 µM: 85%
CSNK1D; 10 µM
  Gao et al. % of activity remaining at 10 µM: 61%
PIM3; 1 µM
  Gao et al. % of activity remaining at 1 µM: 107%
PIM3; 10 µM
  Gao et al. % of activity remaining at 10 µM: 105%
TSSK2; 1 µM
  Gao et al. % of activity remaining at 1 µM: 90%
TSSK2; 10 µM
  Gao et al. % of activity remaining at 10 µM: 78%
TRKA; 1 µM
  Gao et al. % of activity remaining at 1 µM: 2%
TRKA; 10 µM
  Gao et al. % of activity remaining at 10 µM: 0%
SGK1; 1 µM
  Gao et al. % of activity remaining at 1 µM: 83%
SGK1; 10 µM
  Gao et al. % of activity remaining at 10 µM: 64%
AKT1; 1 µM
  Gao et al. % of activity remaining at 1 µM: 97%
AKT1; 10 µM
  Gao et al. % of activity remaining at 10 µM: 101%
PIM2; 1 µM
  Gao et al. % of activity remaining at 1 µM: 114%
PIM2; 10 µM
  Gao et al. % of activity remaining at 10 µM: 103%
MKNK2 (MNK2); 1 µM
  Gao et al. % of activity remaining at 1 µM: 105%
MKNK2 (MNK2); 10 µM
  Gao et al. % of activity remaining at 10 µM: 64%
FLT4; 1 µM
  Gao et al. % of activity remaining at 1 µM: -1%
FLT4; 10 µM
  Gao et al. % of activity remaining at 10 µM: -1%
CDK5/p25; 1 µM
  Gao et al. % of activity remaining at 1 µM: 90%
CDK5/p25; 10 µM
  Gao et al. % of activity remaining at 10 µM: 95%
Aurora A
  IC50: > 12.5 µM
CAMK1; 1 µM
  Gao et al. % of activity remaining at 1 µM: 105%
CAMK1; 10 µM
  Gao et al. % of activity remaining at 10 µM: 41%
MINK1; 1 µM
  Gao et al. % of activity remaining at 1 µM: 71%
MINK1; 10 µM
  Gao et al. % of activity remaining at 10 µM: 21%
MAPK9; 1 µM
  Gao et al. % of activity remaining at 1 µM: 104%
MAPK9; 10 µM
  Gao et al. % of activity remaining at 10 µM: 88%
FRK; 1 µM
  Gao et al. % of activity remaining at 1 µM: 2%
FRK; 10 µM
  Gao et al. % of activity remaining at 10 µM: -3%
HIPK2; 1 µM
  Gao et al. % of activity remaining at 1 µM: 94%
HIPK2; 10 µM
  Gao et al. % of activity remaining at 10 µM: 81%
